Results taken from patent publication US10538497B2, “Compounds as indoleamine 2,3-dioxygenase inhibitors” (Merck Sharp & Dohme Corp., priority 2015, dated 2020).

Key:
IDO1 [1] = target: T1, IDO1 (Homo sapiens (Human), UniProt P14902); test: IDO1 Enzyme Assay; conditions: read-out: IDO1 Enzyme Assay, IC50; HIS-tagged recombinant IDO1, 40 nM
IDO1 [2] = target: T1, IDO1; test: IDO1 Cellular Assay in Frozen HEK293 Cells Transiently Transfected with Human IDO1; format: cell-based; conditions: HEK293 cells transiently transfected with human IDO1; read-out: IDO1 HEK293 Cell Assay, IC50
IDO1 [3] = target: T1, IDO1; test: IDO1 Human Whole Blood Assay; format: cell-based; conditions: LPS and IFNγ 100 ng/mL, kynurenine by LC/MS/MS
IDO1 [4] = target: T1, IDO1; test: IDO1 Cellular Assay in Hela Cells Stimulated with IFNγ; format: cell-based; conditions: Hela cells stimulated with IFNγ 100 ng/mL; read-out: IDO1 HELA Cell Assay, IC50

T1 sequence (P14902 whole entry): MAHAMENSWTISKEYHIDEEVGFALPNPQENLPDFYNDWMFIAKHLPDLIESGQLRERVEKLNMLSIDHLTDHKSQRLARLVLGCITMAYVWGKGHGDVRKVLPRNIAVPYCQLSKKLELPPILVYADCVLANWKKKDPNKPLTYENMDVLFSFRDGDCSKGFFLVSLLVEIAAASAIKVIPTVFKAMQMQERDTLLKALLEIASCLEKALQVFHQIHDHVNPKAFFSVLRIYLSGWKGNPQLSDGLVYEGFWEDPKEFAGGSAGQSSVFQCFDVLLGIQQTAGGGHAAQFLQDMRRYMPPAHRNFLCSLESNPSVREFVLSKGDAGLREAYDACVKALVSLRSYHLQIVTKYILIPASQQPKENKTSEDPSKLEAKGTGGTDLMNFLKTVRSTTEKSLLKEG

Structure (SMILES) | IC50 (IDO1 [1]) [nM] | IC50 (IDO1 [2]) [nM] | IC50 (IDO1 [3]) [nM] | IC50 (IDO1 [4]) [nM]
O=C(CSc1nonc1/C(=N/O)Nc1ccc(F)c(Br)c1)NC[C@@H](O)CO [Example 42, (R)-2-((4-(N-(3-bromo-4-fluorophenyl)-N′-hydroxycarbamimidoyl)-1,2,5-oxadiazol-3-yl)thio)-N-(2,3-dihydroxypropyl)acetamide] | 47.7 | 59.6 | 519 | 34.3
NC(=O)NCCSc1nonc1/C(=N/O)Nc1ccc(F)c(Br)c1 [Example 46, N-(3-Bromo-4-fluorophenyl)-N′-hydroxy-4-((2-ureidoethyl)thio)-1,2,5-oxadiazole-3-carboximidamide] | 33.9 | 16.9 | 239 | 13.5
